Measurements: patent US20180141913A1 (EISAI R & D MANAGEMENT CO., LTD., priority 2016, published 2018)

System: MCF7-WT cells (MCF7 ER-alpha wildtype)
Assay: In vitro proliferation (viability) assay, MCF7-WT cells
Format: cell-based
Conditions: Homo sapiens, MCF7; CellTiter-Glo, day 6 vs day 0; average ± standard deviation; free base and/or salt forms; read-out: MCF7 WT GI50
In short: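 MCF7 cells lentivirally transduced with WT or Y537S ESR1, blasticidin-selected; 1500 cells/well, compounds added next day as 10-point 1:4 dilutions in triplicate, refreshed day 3. CellTiter-Glo luminescence on day 6 versus day 0 plate gives GI50.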

For CNC(=O)/C=C/CNCCOc1ccc(/C(=C(/CC(F)(F)F)c2ccccc2)c2ccc3[nH]nc(F)c3c2)cc1.Cl [Compound 21, (E)-N-methyl-4-((2-(4-((E)-4,4,4-trifluoro-1-(3-fluoro-1H-indazol-5-yl)-2-phenylbut-1-en-1-yl)phenoxy)ethyl)amino)but-2-enamide], the GI50 was 0.75 ± 0.38 nM.
